Experimental data from patent US20240018157A1, “CYCLIC COMPOUNDS AND METHODS OF USING SAME” (Schrödinger, Inc., priority 2019, published 2024).

Legend:
[1] = test system: IL10 secretion, OCI-LY10 cells; test: Human IL10 secretion assay, Assay 1 (HTRF); type: cell-based; details: 24 h incubation, read-out: IL-10 Secretion IC50 [nM] Assay 1
How it was run: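 OCI-LY10 cells (3×10^5/well, IMEM with 20% FBS) were treated with 3-fold serial compound dilutions from a 10 mM stock, 0.1% DMSO final, for 24 h. Secreted IL10 in medium was quantified by HTRF, normalised to DMSO-treated and no-cell controls, and IC50 (nM) derived by 4-parameter fit.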

[2] = biological target: T1, full-length MALT1 protein His-MALT1(1-824) (Homo sapiens (Human), UniProt Q9UDY8); test: MALT1 protease assay, Assay 1 (2 nM MALT1, Ac-LRSR-AMC substrate); type: biochemical; details: 2 nM MALT1, 50 μM Ac-LRSR-AMC, 2 h pre-incubation, 8 hr incubation at RT
T1 sequence (Q9UDY8 whole entry): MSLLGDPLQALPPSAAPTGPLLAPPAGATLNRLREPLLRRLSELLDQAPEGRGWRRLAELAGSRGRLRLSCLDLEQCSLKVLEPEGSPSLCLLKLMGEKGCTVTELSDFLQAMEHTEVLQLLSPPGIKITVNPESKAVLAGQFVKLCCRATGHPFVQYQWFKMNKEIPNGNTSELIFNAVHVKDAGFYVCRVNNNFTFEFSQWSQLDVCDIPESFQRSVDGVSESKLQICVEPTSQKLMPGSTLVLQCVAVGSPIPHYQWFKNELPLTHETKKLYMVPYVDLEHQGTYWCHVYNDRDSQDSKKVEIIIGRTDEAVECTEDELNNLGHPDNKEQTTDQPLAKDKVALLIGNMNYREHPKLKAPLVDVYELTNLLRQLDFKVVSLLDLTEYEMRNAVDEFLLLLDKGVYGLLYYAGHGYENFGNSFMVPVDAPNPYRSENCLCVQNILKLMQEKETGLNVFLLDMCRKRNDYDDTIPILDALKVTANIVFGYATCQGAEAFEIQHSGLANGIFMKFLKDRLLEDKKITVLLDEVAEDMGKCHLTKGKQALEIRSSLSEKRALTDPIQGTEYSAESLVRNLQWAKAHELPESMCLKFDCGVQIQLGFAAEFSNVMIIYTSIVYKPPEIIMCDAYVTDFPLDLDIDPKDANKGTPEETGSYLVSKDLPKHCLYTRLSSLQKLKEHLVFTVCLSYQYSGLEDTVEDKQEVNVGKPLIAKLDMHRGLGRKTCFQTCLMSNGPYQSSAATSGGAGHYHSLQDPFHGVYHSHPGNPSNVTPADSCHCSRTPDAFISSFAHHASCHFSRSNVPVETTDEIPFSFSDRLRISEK
Experimental: MALT1 protease activity was assessed in an in vitro assay using a tetrapeptide as substrate and full-length MALT1 protein His-MALT1(1-824) purified from baculovirus-infected insect cells.
The final assay buffer includes 1 nM (Assay 2) or 2 nM (Assay 1) of MALT1 full-length protein, 50 μM Ac-LRSR-AMC substrate, 50 mM Tris pH 7.5, 600 mM Sodium Citrate, 1 mM DTT, 1 mM EDTA, and 0.05% BSA in 384-well plate format using black microtiter square well plates (Optiplate 384-F, Perkin Elmer).
Test compounds were dissolved in 100% DMSO at stock of 10 mM, with final DMSO concentration 0.1%. Test compounds were pre-incubated with MALT1 protein for 2 h at room temperature. Substrate was added after the pre-incubation and fluorescence signal was measured using Envision at excitation 355 nm and emission 460 nm after 8 hr incubation at RT. Increase in the assay signal was linear over this period and proportional with increase in the enzyme content.
The fluorescence units were transformed to percentage of remaining activity by using the high control (HC, median of fluorescence signal from wells containing MALT1 protein, substrate, and DMSO) and low control (LC, median of fluorescence signal from wells with substrate only) with the formula below: […]
IC50 and Hill coefficient were obtained using Graph Pad Prism (Graph Pad software, Inc, USA) with non-linear regression analysis.

[3] = biological target: T1, full-length MALT1 protein His-MALT1(1-824); test: MALT1 protease assay, Assay 2 (1 nM MALT1, Ac-LRSR-AMC substrate); type: biochemical; details: 1 nM MALT1, 50 μM Ac-LRSR-AMC, 2 h pre-incubation, 8 hr incubation at RT
How it was run: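 His-MALT1(1-824) from baculovirus-infected insect cells at 1 nM, preincubated 2 h at RT with compound (0.1% DMSO), then 50 μM Ac-LRSR-AMC in 50 mM Tris pH 7.5, 600 mM sodium citrate, 1 mM DTT, 1 mM EDTA, 0.05% BSA. Fluorescence (ex 355/em 460 nm) after 8 h at RT, normalized to enzyme and substrate-only controls. IC50 and Hill coefficient by non-linear regression.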

| IC50 [1] | IC50 [2] | IC50 [3] | Compound |
| --- | --- | --- | --- |
| 10 to 100 nM | < 10 nM | – | COc1nc(-n2nccn2)c(Cl)cc1NC(=O)N1C[C@@](C)(C(F)(F)F)c2c1cnc1cc(Cl)nn21 [compound 52, (R)-2-chloro-N-(5-chloro-2-methoxy-6-(2H-1,2,3-triazol-2-yl)pyridin-3-yl)-8-methyl-8-(trifluoromethyl)-7,8-dihydro-6H-pyrazolo[1,5-a]pyrrolo[2,3-e]pyrimidine-6-carboxamide] |
| 100 to 1000 nM | 10 to 100 nM | – | Cn1cc(-c2ncc(NC(=O)N3C[C@@](C)(C(F)(F)F)c4c3cnc3cc(Cl)nn43)cc2Cl)cn1 [compound 20, (R)-2-chloro-N-(5-chloro-6-(1-methyl-1H-pyrazol-4-yl)pyridin-3-yl)-8-methyl-8-(trifluoromethyl)-7,8-dihydro-6H-pyrazolo[1,5-a]pyrrolo[2,3-e]pyrimidine-6-carboxamide] |
| ≥ 1000 nM | 10 to 100 nM | – | CC1(C)CCN(C(=O)Nc2cnc(-n3nccn3)c(Cl)c2)c2ccc3cc(Cl)nn3c21 [compound 9, 2-chloro-N-(5-chloro-6-(2H-1,2,3-triazol-2-yl)pyridin-3-yl)-9,9-dimethyl-8,9-dihydropyrazolo[1,5-a][1,5]naphthyridine-6(7H)-carboxamide] |
| 100 to 1000 nM | 10 to 100 nM | – | C[C@@]1(C(F)(F)F)CN(C(=O)Nc2cnc(CO)c(Cl)c2)c2cnc3cc(Cl)nn3c21 [compound 43, (R)-2-chloro-N-(5-chloro-6-(hydroxymethyl)pyridin-3-yl)-8-methyl-8-(trifluoromethyl)-7,8-dihydro-6H-pyrazolo[1,5-a]pyrrolo[2,3-e]pyrimidine-6-carboxamide] |
| 100 to 1000 nM | 10 to 100 nM | – | Cc1cc2ncc3c(n2n1)C(C)(C)CCN3C(=O)Nc1cnc(-n2nccn2)c(Cl)c1 [compound 8, N-(5-chloro-6-(2H-1,2,3-triazol-2-yl)pyridin-3-yl)-2,9,9-trimethyl-8,9-dihydropyrazolo[1,5-a]pyrido[2,3-e]pyrimidine-6(7H)-carboxamide] |
| – | 10 to 100 nM | – | C[C@@]1(C(F)(F)F)CN(C(=O)Nc2cnc(-n3cc(C#N)cn3)c(Cl)c2)c2cnc3cc(Cl)nn3c21 [compound 22, (R)-2-chloro-N-(5-chloro-6-(4-cyano-1H-pyrazol-1-yl)pyridin-3-yl)-8-methyl-8-(trifluoromethyl)-7,8-dihydro-6H-pyrazolo[1,5-a]pyrrolo[2,3-e]pyrimidine-6-carboxamide] |
| – | 100 to 1000 nM | 100 to 1000 nM | C[C@@]1(C(F)(F)F)CN(C(=O)NC2CCC(F)(F)CC2)c2cnc3cc(Cl)nn3c21 [compound 37, (R)-2-chloro-N-(4,4-difluorocyclohexyl)-8-methyl-8-(trifluoromethyl)-7,8-dihydro-6H-pyrazolo[1,5-a]pyrrolo[2,3-e]pyrimidine-6-carboxamide] |
| – | 10 to 100 nM | – | Cc1cc(NC(=O)N2C[C@@](C)(C(F)(F)F)c3c2cnc2cc(Cl)nn32)cnc1-n1ccnn1 [compound 30, (R)-2-chloro-8-methyl-N-(5-methyl-6-(1H-1,2,3-triazol-1-yl)pyridin-3-yl)-8-(trifluoromethyl)-7,8-dihydro-6H-pyrazolo[1,5-a]pyrrolo[2,3-e]pyrimidine-6-carboxamide] |
| – | 10 to 100 nM | – | Cn1cnc(-c2ncc(NC(=O)N3C[C@@](C)(C(F)(F)F)c4c3cnc3cc(Cl)nn43)cc2Cl)c1 [compound 28, (R)-2-chloro-N-(5-chloro-6-(1-methyl-1H-imidazol-4-yl)pyridin-3-yl)-8-methyl-8-(trifluoromethyl)-7,8-dihydro-6H-pyrazolo[1,5-a]pyrrolo[2,3-e]pyrimidine-6-carboxamide] |
| 100 to 1000 nM | 10 to 100 nM | 10 to 100 nM | C[C@@]1(C(F)(F)F)CN(C(=O)Nc2cnc(C#N)c(Cl)c2)c2cnc3cc(Cl)nn3c21 [compound 42, (R)-2-chloro-N-(5-chloro-6-cyanopyridin-3-yl)-8-methyl-8-(trifluoromethyl)-7,8-dihydro-6H-pyrazolo[1,5-a]pyrrolo[2,3-e]pyrimidine-6-carboxamide] |
| – | 10 to 100 nM | – | C[C@@]1(C(F)(F)F)CN(C(=O)Nc2cnc(N3CCCC3)c(Cl)c2)c2cnc3cc(Cl)nn3c21 [compound 23, (R)-2-chloro-N-(5-chloro-6-(pyrrolidin-1-yl)pyridin-3-yl)-8-methyl-8-(trifluoromethyl)-7,8-dihydro-6H-pyrazolo[1,5-a]pyrrolo[2,3-e]pyrimidine-6-carboxamide] |
